According to patent US11472766B2, “Lipid nanoparticle composition” (Suzhou Abogen Biosciences Co., Ltd., priority 2020, dated 2022):

Tests used:
[1] = Lipid nanoparticle size by dynamic light scattering (Malvern Zetasizer Nano ZS); assay type: physicochemical; details: LNP: cationic lipid/DSPC/cholesterol/PEG-lipid 50:10:38.5:1.5, hEPO mRNA
Experimental: (§1) Briefly, a cationic lipid provided herein, DSPC, cholesterol, and PEG-lipid were solubilized in ethanol at a molar ratio of 50:10:38.5:1.5, and mRNA were diluted in 10 to 50 mM citrate buffer, pH=4. The LNPs were prepared at a total lipid to mRNA weight ratio of approximately 10:1 to 30:1 by mixing the ethanolic lipid solution with the aqueous mRNA solution at a volume ratio of 1:3 using a microfluidic apparatus, total flow rate ranging from 9-30 mL/min. Ethanol were thereby removed and replaced by DPBS using dialysis. Finally, the lipid nanoparticles were filtered through a 0.2 μm sterile filter.
(§2) Lipid nanoparticle size were determined by dynamic light scattering using a Malvern Zetasizer Nano ZS (Malvern UK) using a 173° backscatter detection mode. The encapsulation efficiency of lipid nanoparticles were determined using a Quant-it Ribogreen RNA quantification assay kit (Thermo Fisher Scientific, UK) according to the manufacturer's instructions.

[2] = Encapsulation efficiency of lipid nanoparticles (Quant-it Ribogreen RNA quantification assay); assay type: physicochemical; details: LNP encapsulating hEPO mRNA
Experimental: as §1, §2

[3] = system: human erythropoietin (hEPO) mRNA; experiment: Animal study: hEPO expression after tail vein injection of LNPs encapsulating hEPO mRNA (serum ELISA); assay type: in vivo; details: hEPO level, female ICR mice, 0.5 mg/kg, 6 hours post administration; for Expression at 6 h: Table 2; for Expression at 6 h (μg/ml): class symbols, Table 3
Experimental: Lipid nanoparticles comprising compounds 1-10 encapsulating human erythropoietin (hEPO) mRNA were systemically administered to 6-8 week old female ICR mice (Xipuer-Bikai, Shanghai) at 0.5 mg/kg dose by tail vein injection and mice blood were sampled at specific time points (e.g., 6 hours) post administration. In addition to the aforementioned tested groups, lipid nanoparticles comprising dilinoleylmethyl-4-dimethylaminobutyrate (DLin-MC3-DMA, usually abbreviated to MC3) encapsulating hEPO mRNA were similarly administered at the same dose to age and gender comparative groups of mice as a positive control.
Mice were euthanized by CO2 overdoses after the last sampling time point. Serum were separated from total blood by centrifugation at 5000 g for 10 minutes at 4° C., snap-frozen and stored at −80° C. for analysis. ELSA assay were carried out using a commercial kit (DEP00, R&D systems) according to manufacturer's instructions.
Characteristics of tested lipid nanoparticles, including hEPO expression levels (μg/ml) measured from the tested group are listed the tables below and plotted in FIG. 2.

[4] = Apparent pKa of LNP formulations (TNS fluorescence assay); details: LNP cationic lipid/DSPC/cholesterol/DMG-PEG 50/10/38.5/1.5 mol %
Experimental: The apparent pKa of each formulation was determined using an assay based on fluorescence of 2-(p-toluidino)-6-napthalene sulfonic acid (TNS). LNP formulations comprising of cationic lipid/DSPC/cholesterol/DMG-PEG (50/10/38.5/1.5 mol %) in PBS were prepared as described above. TNS was prepared as a 300 uM stock solution in distilled water. LNP formulations were diluted to 0.1 mg/ml total lipid in 3 mL of buffered solutions containing 50 mM sodium citrate, 50 mM sodium phosphate, 50 mM sodium borate, and 30 mM sodium chloride where the pH ranged from 3 to 9. An aliquot of the TNS solution was added to give a final concentration of 0.1 mg/ml and following vortex mixing fluorescence intensity was measured at room temperature in a Molecular Devices Spectramax iD3 spectrometer using excitation and mission wavelengths of 325 nm and 435 nm. A sigmoidal best fit analysis was applied to the fluorescence data and the pKa value was measured as the pH giving rise to half-maximal fluorescent intensity.

Row | polydispersity ([1]; Table 2) | size nm ([1]; Table 2) [nm] | Encapsulation Efficiency ([2]; Table 2) [%] | Apparant Pka ([4]; Table 2) | polydispersity ([1]; Table 3) | size nm ([1]; Table 3) [nm] | Encapsulation Efficiency ([2]; Table 3) [%] | Apparant Pka ([4]; Table 3) | SMILES | Expression at 6 h [3] [µg/mL] | Expression at 6 h (μg/ml) [3]
1 | 0.168 | 76.5 | 95.7 | 6.40 | – | – | – | – | CCCCCCCCC(CCCCCC)COC(=O)CCCCCN(CCCCCC(=O)OCC(CCCCCC)CCCCCCCC)CCN(CCO)C1CCC1 (centres unmarked) [Compound 1] | 16.21 | –
2 | 0.065 | 75.3 | 96.8 | 6.27 | – | – | – | – | CCCCCCCCC(CCCCCC)COC(=O)CCCCCN(CCCCCC(=O)OCC(CCCCCC)CCCCCCCC)CCN(CCO)C1CCCCC1 (centres unmarked) [Compound 2] | 6.16 | –
3 | 0.060 | 58.7 | 96.3 | 6.22 | – | – | – | – | CCCCCCCCC(CCCCCC)COC(=O)CCCCCN(CCCCCC(=O)OCC(CCCCCC)CCCCCCCC)CCN(CCO)C1CCCCCC1 (centres unmarked) [Compound 3] | 2.63 | –
4 | 0.068 | 57.5 | 98.1 | 5.87 | – | – | – | – | CCCCCCCCC(CCCCCC)COC(=O)CCCCCN(CCCCCC(=O)OCC(CCCCCC)CCCCCCCC)CCN(CCO)C1CC1 (centres unmarked) [Compound 4] | 0.48 | –
5 | 0.029 | 54.0 | 96.2 | 6.24 | – | – | – | – | CCCCCCCCC(CCCCCC)COC(=O)CCCCCN(CCCCCC(=O)OCC(CCCCCC)CCCCCCCC)CCN(CCO)C1CCCC1 (centres unmarked) [Compound 5] | 0.25 | –
6 | 0.109 | 60.5 | 96.6 | 5.88 | – | – | – | – | CCCCCCCCC(CCCCCC)COC(=O)CCCCCN(CCCCCC(=O)OCC(CCCCCC)CCCCCCCC)CCN(CCO)C1CCCCCCC1 (centres unmarked) [Compound 6] | 0.00 | –
7 | 0.110 | 149.1 | 47.0 | 5.39 | – | – | – | – | CCCCCCCCC(CCCCCC)COC(=O)CCCCCN(CCCCCC(=O)OCC(CCCCCC)CCCCCCCC)CCN(CCO)c1ccccc1 (centres unmarked) [Compound 7] | 0.00 | –
8 | 0.065 | 54.7 | 96.9 | 5.84 | – | – | – | – | CCCCCCCCC(CCCCCC)COC(=O)CCCCCN(CCCCCC(=O)OCC(CCCCCC)CCCCCCCC)CCN(C(=O)CCO)C1CCC1 (centres unmarked) [Compound 8] | 0.00 | –
9 | 0.106 | 77.6 | 93.3 | 6.01 | – | – | – | – | CCCCCCCCC(CCCCCC)COC(=O)CCCCCN(CCCCCC(=O)OCC(CCCCCC)CCCCCCCC)CCN(CCCO)C1CCCCC1 (centres unmarked) [Compound 9] | 0.86 | –
10 | 0.113 | 69.2 | 96.0 | 5.83 | – | – | – | – | CCCCCCCCC(CCCCCC)COC(=O)CCCCCN(CCCCCC(=O)OCC(CCCCCC)CCCCCCCC)CCN(CCCO)C1CCCCCC1 (centres unmarked) [Compound 10] | 0.79 | –
11 | – | – | – | – | 0.109 | 67.23 | 90.9 | 5.662 | CCCCCCCCC(CCCCCC)COC(=O)CCCCCN(CCCCCC(=O)OCC(CCCCCC)CCCCCCCC)C(=O)CN(CCO)C1CCC1 (centres unmarked) [Compound 11] | – | D (<0.1)
12 | – | – | – | – | 0.015 | 75.86 | 99.80 | 5.801 | CCCCCCCCC(CCCCCC)COC(=O)CCCCCN(CCCCCC(=O)OCC(CCCCCC)CCCCCCCC)C(=O)CCN(CCO)C1CCC1 (centres unmarked) [Compound 12] | – | D (<0.1)
13 | – | – | – | – | 0.095 | 89.96 | 96.8 | 7.206 | CCCCCCCCC(CCCCCC)COC(=O)CCCCCN(CCCCCC(=O)OCC(CCCCCC)CCCCCCCC)C(=O)CCCN(CCO)C1CCC1 (centres unmarked) [Compound 13] | – | C (≥0.1 and <1)
14 | – | – | – | – | 0.174 | 76.97 | 95.14 | – | CCCCCCCCC(CCCCCC)CNC(=O)CCCCCN(CCCCCC(=O)OCC(CCCCCC)CCCCCCCC)CCN(CCO)C1CCC1 (centres unmarked) [Compound 106] | – | A (≥2)
15 | – | – | – | – | 0.11 | 106.9 | 95.64 | – | CCCCCCCCC(CCCCCC)CNC(=O)CCCCCN(CCCCCC(=O)NCC(CCCCCC)CCCCCCCC)CCN(CCO)C1CCC1 (centres unmarked) [Compound 107] | – | A (≥2)
16 | – | – | – | – | 0.111 | 49.51 | 95.9 | – | CCCCCCCCC(CCCCCC)CNC(=O)CCCCCN(CCCCCC(=O)NCC(CCCCCC)CCCCCCCC)CCN(CCO)C1CCCCCC1 (centres unmarked) [Compound 112] | – | C (≥0.1 and <1)
17 | – | – | – | – | 0.06 | 67.17 | 93.2 | – | CCCCCCCCC(CCCCCC)CNC(=O)CCCCCN(CCCCCC(=O)NCC(CCCCCC)CCCCCCCC)CCN(CCO)C1CC1 (centres unmarked) [Compound 119] | – | D (<0.1)
18 | – | – | – | – | 0.134 | 71.02 | 94.5 | – | CCCCCCCCC(CCCCCC)CNC(=O)NCCCCN(CCCCNC(=O)NCC(CCCCCC)CCCCCCCC)CCN(CCO)C1CCC1 (centres unmarked) [Compound 121] | – | B (≥1 and <2)
19 | – | – | – | – | 0.285 | 264.9 | 30.1 | – | CCCCCCCCNC(=O)CCCCCN(CCCCCC(=O)NCCCCCCCC)CCN(CCO)C1CCCCC1 [Compound 123] | – | A (≥2)
20 | – | – | – | – | 0.101 | 78.17 | 100.10 | – | CCCCCCCCC(CCCCCC)CNC(=O)CCCCCN(CCCCCC(=O)OCC(CCCCCC)CCCCCCCC)CCN(CCO)C1CCCC1 (centres unmarked) [Compound 126] | – | A (≥2)
21 | – | – | – | – | 0.111 | 77.12 | 98.70 | – | CCCCCCCCC(CCCCCC)CNC(=O)CCCCCN(CCCCCC(=O)OCC(CCCCCC)CCCCCCCC)CCN(CCO)C1CCCCC1 (centres unmarked) [Compound 127] | – | A (≥2)
22 | – | – | – | – | 0.107 | 79.73 | 86.10 | – | CCCCCCCCC(CCCCCC)CNC(=O)CCCCCN(CCCCCC(=O)OCC(CCCCCC)CCCCCCCC)CCN(CCO)C1CCCCCC1 (centres unmarked) [Compound 128] | – | A (≥2)
23 | – | – | – | – | 0.131 | 63.13 | 91.20 | – | CCCCCCCCC(CCCCCC)CNC(=O)CCCCCN(CCCCCC(=O)NCC(CCCCCC)CCCCCCCC)CCN(CCO)C1CCCCC1 (centres unmarked) [Compound 129] | – | A (≥2)
24 | – | – | – | – | 0.097 | 79.92 | 92.50 | – | CCCCCCCCC(CCCCCC)CC(=O)NCCCCCN(CCCCCOC(=O)CC(CCCCCC)CCCCCCCC)CCN(CCO)C1CCCC1 (centres unmarked) [Compound 130] | – | A (≥2)
25 | – | – | – | – | 0.064 | 79.11 | 80.00 | – | CCCCCCCCC(CCCCCC)CC(=O)NCCCCCN(CCCCCOC(=O)CC(CCCCCC)CCCCCCCC)CCN(CCO)C1CCCCC1 (centres unmarked) [Compound 131] | – | A (≥2)
26 | – | – | – | – | 0.129 | 70.33 | 88.00 | – | CCCCCCCCC(CCCCCC)CC(=O)NCCCCCN(CCCCCOC(=O)CC(CCCCCC)CCCCCCCC)CCN(CCO)C1CCCCCC1 (centres unmarked) [Compound 132] | – | A (≥2)
27 | – | – | – | – | 0.063 | 61.17 | 94.29 | – | CCCCCCCCC(CCCCCCCC)CNC(=O)CCCCCN(CCCCCC(=O)OCC(CCCCCCCC)CCCCCCCC)CCN(CCO)C1CCCC1 [Compound 136] | – | A (≥2)
28 | 0.042 | 79.8 | 98.5 | – | – | – | – | – | CCCCC/C=C\C/C=C\CCCCCCCCC(CCCCCCCC/C=C\C/C=C\CCCCC)OC(=O)CCCN(C)C [MC3, dilinoleylmethyl-4-dimethylaminobutyrate, reference compound] | 2.35 | –
